The numbers were not newly measured in patent USRE37771E1, “Purification of cinnamoyl-C-glycoside chromone” (Univera Pharmaceuticals, Inc., priority 1996, dated 2002), which cites them from elsewhere.

The conditions of data set [1]: in vivo assays; details in related U.S. application Ser. No. 08/391,139.
For data set [2], the system named is epithelial cell lines. The note with it: in vitro, details in related U.S. application Ser. No. 08/391,139.

For `COc1cc(C)c2c(=O)cc(CC(C)O)oc2c1C1OC(CO)C(O)C(O)C1OC(=O)/C=C/c1ccccc1` [540 compound, 8-C-β-D-[2′-O-(E)-cinnamoyl]glycopyranosyl-2-[(S)-2-hydroxy]propyl-7-methoxy-5-methylchromone], the anti-inflammatory activity result in data set [1] is “potent anti-inflammatory activity”. Besides, the “inhibition of EGF-induced DNA synthesis” value in data set [2] is “inhibit EGF-induced DNA synthesis”.
